Experiment [1] concerns the target T1, Alcaligenes faecalis Penicillin G acylase mutant B:L56G (Alcaligenes faecalis, UniProt O34142, L321G).
T1 construct: alpha 202 aa, beta 551 aa; recombinant, E. coli host
T1 sequence (O34142 27-228): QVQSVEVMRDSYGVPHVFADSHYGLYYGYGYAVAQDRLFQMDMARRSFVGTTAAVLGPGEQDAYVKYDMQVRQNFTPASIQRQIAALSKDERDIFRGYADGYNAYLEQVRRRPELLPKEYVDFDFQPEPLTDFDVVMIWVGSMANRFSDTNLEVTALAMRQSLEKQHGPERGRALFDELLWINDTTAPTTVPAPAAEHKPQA
T1 sequence (O34142 266-816 L321G): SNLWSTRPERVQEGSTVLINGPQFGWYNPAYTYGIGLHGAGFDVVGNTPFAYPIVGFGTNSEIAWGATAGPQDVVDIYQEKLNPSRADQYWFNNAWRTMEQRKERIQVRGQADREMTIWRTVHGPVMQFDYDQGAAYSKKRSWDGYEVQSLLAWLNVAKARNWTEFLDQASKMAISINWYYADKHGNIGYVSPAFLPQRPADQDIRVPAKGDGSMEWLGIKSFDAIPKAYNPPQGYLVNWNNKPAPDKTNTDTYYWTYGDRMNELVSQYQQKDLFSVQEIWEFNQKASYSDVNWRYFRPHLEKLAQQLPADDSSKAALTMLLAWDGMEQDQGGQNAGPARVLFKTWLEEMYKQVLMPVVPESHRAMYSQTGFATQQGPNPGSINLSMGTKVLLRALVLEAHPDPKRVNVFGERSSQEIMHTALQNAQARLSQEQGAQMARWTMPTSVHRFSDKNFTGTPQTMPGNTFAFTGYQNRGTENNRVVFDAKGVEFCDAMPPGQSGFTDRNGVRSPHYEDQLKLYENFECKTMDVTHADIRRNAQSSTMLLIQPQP
Briefly: NIPAB kinetics and phenylacetic acid product inhibition, mutant B:L56G. The class given is biochemical. As to conditions: from progress curves of NIPAB deacylation, 25° C., 0.1 M NaH2PO4.H2O buffer pH 7.5, read-out: Ki Phenylacetic acid (inhibition constant, dissociation constant). On the procedure: In a continuous assay Penicillin G acylase was assayed spectro-fotometrically with the chromogenic substrate NIPAB [6-nitro-3-phenylacetamido-benzoic acid]. The liberation of 3-amino-6-nitrobenzoic acid was monitored by measuring the extinction at 405 nm in a Kontron 610 kinetic spectrofotometer. Measuring maximal rate, the assays were performed at 25° C. using 20 mM NaH2 PO4.H2 O at pH 7.5 with 20 mM NIPAB and 100 μl enzym solution (at a proper dilution). Initial rate measurements were performed with varying concentration of NIPAB.
Initial rate measurements were performed with excess substrate over the enzyme. Catalytic parameters were derived from least-squares fitting of the measured initial rates plotted for various substrate concentrations according to the Michaelis-Menten equation.
The complete conversion of NIPAB was followed as a funtion of time at 20, 50 and 100 μM NIPAB by following the increase in absorbtion at 405 nm. Products of this conversion are phenylacetic acid and 3-amino-6-nitrobenzoic acid. The conversion was performed at 25° C. in 0.1 M NaH2 PO4.H2 O buffer pH 7.5. The progress curves of the deacylation of NIPAB could be fitted very well when product inhibition by phenylacetic acid was taken into account. […]

In experiment [2] the target is T2, Alcaligenes faecalis Penicillin G acylase, wild type (α subunit SEQ ID NO:27, β subunit SEQ ID NO:32) (Alcaligenes faecalis, UniProt O34142).
T2 construct: alpha 202 aa, beta 551 aa; likely recombinant, E. coli host
T2 sequence (O34142 27-228): T1 sequence (O34142 27-228)
T2 sequence (O34142 266-816): T1 sequence (O34142 266-816 L321G) with G56L
Briefly: Deacylation kinetics and phenylacetic acid product inhibition, wild type PenG acylase. Format: biochemical. As to conditions: wt AF; from progress curves of NIPAB deacylation, 25° C., 0.1 M NaH2PO4.H2O buffer pH 7.5; read-out: Ki Phenylacetic acid (inhibition constant, dissociation constant). The protocol: In order to determine enzymatic activity the acylases were incubated with substrate at room temperature in buffered solution. In case β-lactamase impurity was expected to be present in the enzyme preparations, 1.0 mM -lactamase inhibitor 6-bromo-penicillanic acid was added to the assay. The reactions were stopped by adding an excess PMSF. For some mutants which were less sensitive to PMSF inhibition, the reactions were stopped by adding 0.5 M HCl or 0.5 M acetic acid until the pH was between 3 and 4. When reactions were subsequently analysed by HPLC, the reactions were stopped by dilution with the correponding elution solvent (see table 1). […]
The composition of the reaction mixtures was determined by high-performanceliquid chromatography (HPLC)(table 1). Concentrations were determined by using standards of known concentration.
In a continuous assay Penicillin G acylase was assayed spectro-fotometrically with the chromogenic substrate NIPAB [6-nitro-3-phenylacetamido-benzoic acid]. The liberation of 3-amino-6-nitrobenzoic acid was monitored by measuring the extinction at 405 nm in a Kontron 610 kinetic spectrofotometer. […]
Initial rate measurements were performed with excess substrate over the enzyme. Catalytic parameters were derived from least-squares fitting of the measured initial rates plotted for various substrate concentrations according to the Michaelis-Menten equation. […]

Structures are written as SMILES. Positions count from the first letter of the chain named.

For the molecule `O=C(O)Cc1ccccc1` [phenylacetic acid], the Ki came to 55 µM in experiment [1] and 11 µM in experiment [2].

Broadly, the Ki is the dissociation constant of the complex between target and ligand, obtained from inhibition or displacement.

These data come from US6033823A, “Mutated penicillin G acylase genes” (priority 1994, dated 2000).
